Results from ChEMBL document CHEMBL4765417, “Targeting Protein Folding: A Novel Approach for the Treatment of Pathogenic Bacteria” (J Med Chem, 2020).

Key:
[1] = biological target: Peptidyl-prolyl cis-trans isomerase FKBP1A (Homo sapiens, UniProt P62942); test: Inhibition of human FKBP12 assessed as reduction in PPIase activity using succinyl-Ala-Leu-Pro-Phe-4-nitroanilide as substrate incubated for 4 mins by absorbance method
[2] = biological target: Outer membrane protein MIP (Legionella pneumophila, UniProt Q70YI1); test: Inhibition of Legionella pneumophila Mip assessed as reduction in PPIase activity using succinyl-Ala-Leu-Pro-Phe-4-nitroanilide as substrate incubated for 4 mins by absorbance method
clinical = details: human, in vivo, po, 30 mg/m2
Chlamydia trachomatis [3] = test: Antibacterial activity against Chlamydia trachomatis infected in human HeLa cells at 5 uM assessed as reduction in progeny infection administered at 8 to 24 hrs post infection by Western blot analysis; type: functional; set-up: scale not given: the % may be the effect or the level left; details: time 8-24 hrs
Chlamydia trachomatis [4] = test: Antibacterial activity against Chlamydia trachomatis infected in human HeLa cells at 5 uM assessed as reduction in progeny infection administered immediately followed by bacterial infection by Western blot analysis; type: functional; set-up: scale not given: the % may be the effect or the level left
Chlamydia trachomatis [5] = test: Antibacterial activity against Chlamydia trachomatis infected in human HeLa cells at 5 uM administered at 8 to 24 hrs post infection by phalloidin dye based Alexa Fluor immunofluorescence microscopy; type: functional; details: time 8-24 hrs
[6] = Inhibition of Chlamydia trachomatis Mip using N-succinyl-Ala-Ala-Pro-Phe-4-nitroanilide as substrate by absorbance method
[7] = Inhibition of Neisseria gonorrhoeae N2009 Mip using N-succinyl-Ala-Ala-Pro-Phe-4-nitroanilide as substrate by absorbance method
Chlamydia trachomatis [8] = test: Antibacterial activity against Chlamydia trachomatis infected in human HeLa cells at 5 uM assessed as reduction in progeny infection administered immediately followed by bacterial infection by phalloidin dye based Alexa Fluor immunofluorescence microscopy; type: functional; set-up: scale not given: the % may be the effect or the level left
HCT-116 = test: Antiproliferative activity against human HCT116 cells incubated for 24 hrs by cell count reagent SF based assay; type: functional; details: HCT-116, 24 h

Outer membrane protein MIP, sequence (Q70YI1 21-233 limits assumed): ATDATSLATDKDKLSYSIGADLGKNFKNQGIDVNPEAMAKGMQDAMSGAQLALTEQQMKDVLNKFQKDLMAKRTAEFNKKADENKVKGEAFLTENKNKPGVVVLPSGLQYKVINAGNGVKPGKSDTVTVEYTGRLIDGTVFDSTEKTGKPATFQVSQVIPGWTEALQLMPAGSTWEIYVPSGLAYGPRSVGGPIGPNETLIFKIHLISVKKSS
Peptidyl-prolyl cis-trans isomerase FKBP1A, sequence (P62942 whole entry): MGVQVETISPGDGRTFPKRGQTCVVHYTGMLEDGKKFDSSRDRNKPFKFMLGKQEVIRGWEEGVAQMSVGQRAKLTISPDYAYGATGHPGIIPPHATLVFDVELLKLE

Structure (SMILES) | IC50 [1] [µM] | IC50 [2] [µM] | IC50 [6] [µM] | IC50 [7] [µM] | also measured
C[C@@H]1CC([C@H](O)CC2CC(=O)N(CC(=O)NC3C4CC5(C)CC(O)(C4)CC3(C)C5)C(=O)C2)C(=O)[C@@H](C)C1 (stereo partly specified) | 0.22 | 4.9 |  |  | 
CC1=C(/C=C/C(C)=C/C=C/C(C)=C/C(=O)O)C(C)(C)CCC1 [TRETINOIN] |  |  |  |  | half-life at 672 h (clinical): 45 min
COc1cc(CCCOC(=O)C2CCCCN2S(=O)(=O)Cc2ccc([N+](=O)[O-])cc2)cc(OC)c1OC (stereo unspecified) |  |  | 0.0646 | 0.0956 | Activity (Chlamydia trachomatis [3]): 50%; Activity (Chlamydia trachomatis [4]): 50%; Activity (Chlamydia trachomatis [5]): 50%; Activity (Chlamydia trachomatis [8]): 50%
CCC12CC3CC(C1)C(NC(=O)CN1C(=O)CC(C[C@@H](O)C4C[C@@H](C)C[C@H](C)C4=O)CC1=O)C(C3)C2 (stereo partly specified) | 0.19 | 5.6 |  |  | 
COc1cc(CCCOC(=O)C2CCCCN2S(=O)(=O)Cc2cccc([N+](=O)[O-])c2)cc(OC)c1OC (stereo unspecified) |  |  | 0.241 | 2.79 | 
CO[C@H]1C[C@@H]2CC[C@@H](C)[C@@](O)(O2)C(=O)C(=O)N2CCCC[C@H]2C(=O)O[C@H]([C@H](C)C[C@@H]2CC[C@@H](O)[C@H](OC)C2)CC(=O)[C@H](C)/C=C(\C)[C@@H](O)[C@@H](OC)C(=O)[C@H](C)C[C@H](C)/C=C/C=C/C=C/1C [SIROLIMUS] |  |  | 0.0079 | 0.0158 | 
C[C@@H]1CC([C@H](O)CC2CC(=O)N(CC(=O)N(C)C(C)(C)C)C(=O)C2)C(=O)[C@@H](C)C1 (stereo partly specified) |  | 31.7 |  |  | 
S=C(SC(=S)C1CCCCC1)C1CCCCC1 |  |  |  |  | EC50 (HCT-116): 10 µM
C[C@@H]1CC([C@H](O)CC2CC(=O)N(CC(=O)NC3C4CC5(C)CC3CC(C)(C4)C5)C(=O)C2)C(=O)[C@@H](C)C1 (stereo partly specified) | 0.18 | 1.7 |  |  | 
C[C@@H]1CC([C@H](O)CC2CC(=O)N(CC(=O)NC3C4CC5CC3CC(O)(C5)C4)C(=O)C2)C(=O)[C@@H](C)C1 (stereo partly specified) | 1.2 | 21.8 |  |  | 
